Data as given in US20240299358A1, “COMPOSITIONS AND METHODS FOR DIAGNOSIS AND TREATMENT OF AUTOIMMUNE DISEASES” (DUKE UNIVERSITY, priority 2021, published 2024).

What was measured:
Human CD3+ T cells = test: Cytokine expression after anti-CD3/28 T cell stimulation with or without HS-131; type: cell-based; conditions: HS-131 1 μM, 24 hours, vs vehicle
Method: The data were analyzed by 2-way ANOVA with Sidak's multiple comparison test, * p<0.05, ** p<0.01. *** p<0.001. Experiments were performed with 6 biological replicates. […] Experiments were performed with 3 biological replicates for each timepoint. […] Experiments were performed with 3 biological replicates for each timepoint. […] Temporal upregulation of eHsp90 (green line) post T cell stimulation. CD25 expression: 6-8 biological replicates per time point. eHsp90 expression 6 biological replicates for each timepoint. […] Data represent mean ±SD. The data were analyzed by 2-way ANOVA with Sidaks multiple comparison test. Experiments were performed once with 3 biological replicates. […] Data represent mean ±SEM. […] Experiment was performed once with 4 biological replicates.
Next, the expression of eHsp90 and total Hsp90 over the course of T cell activation was tracked. Both total Hsp90 cellular content and eHsp90 expression in anti-CD3/28 stimulated human PBMCs were evaluated. […] Specifically, anti-CD3/28 stimulation caused eHsp90 up regulation in CD69+/CD25+ and CD69+/CD25− T-cell populations with a 5-8 fold increase within the first 24 hours post activation, whereas CD69−/CD25− T cells show no increase in probe or eHsp90 levels (see. FIG. 3B). […] One candidate client eHsp90 protein is CD25, the IL-2 receptor. […] Here it was observed that CD25 expression peaked at 72 hours post activation, followed by a reduction in expression thereafter which correlates with reduced eHsp90 expression (see. FIG. 3D). Due to the tight correlation of CD25 and eHsp90 expression, it further tested whether exogenous IL-2 stimulation could maintain high expression of both proteins in activated T cells 72-96 hours post-stimulation. […] Due to IL-2's ability to enhance eHsp90 expression in activated cells, the impacts of eHsp90 inhibition in activated T cells on inflammatory signaling were investigated. Human CD3+ T cells were stimulated with CD3/CD28 activating antibodies for 24 hours in the presence of HS-131. Compared to vehicle treated cells. […] IFNY (p<0.001). IL-17A (p<0.001). MIP-1a/B (p=0.013) and TNF a (p=0.025) (see. FIG. 3F).

[1] = tested on: collagen induced arthritic (CIA) mouse model; test: Therapeutic efficacy in CIA mouse model (clinical score and joint histology); type: in vivo; conditions: 30 mg/kg QD
Method: FIGS. 9A-9E illustrate therapeutic potential of eHsp90 targeted therapies for the treatment of auto immune diseases. […] FIG. 9D are representative photomicrographs of forepaw, knee and ankle from a disease control (Naïve), diseased vehicle treated and HS-131 treated animals. “W” identifies wrist, arrows identifies representative affected joints, and “S” identifies inflammation. […] Experiment was performed once with 12 biological replicates per group.
CIA Disease: Collagen was prepared at 4 mg/ml in 0.01 N acetic acid. Equal volumes of 4 mg/ml collagen and 5 mg/ml Freund's complete adjuvant were emulsified by hand mixing with syringes for approximately 5 min, at which point a bead of this material holds its form when placed in water. On study days 0 and 21, animals were anesthetized with isoflurane and given intradermal injections of a total of 400 μg of type II collagen in Freund's complete adjuvant at the base of the tail.
CIA Experimental Design: Mice were randomized into treatment groups by body weight on study day 18. Animals were treated from day 21-36 of the study with either 20 μL of HS-131 (30 mg/kg) PO, QD or vehicle (DMSO) PO, QD. On study day 36, the mice were euthanized for necropsy. Clinical scores were given for each of the paws (right front, left front, right rear, left rear) on study days 21-36. 0=normal, 1=one hind or fore paw joints affected or minimal diffuse erythema and swelling, 2=two hind or fore paw joints affected or moderate diffuse erythema and swelling, 3=three hind or fore paw joints affected or moderate diffuse erythema and swelling, 4=four hind or fore paw joints affected or marked diffuse erythema and swelling, 5=entire paw affected, severe diffuse erythema and severe swelling, unable to flex digits. Experimenter was blinded from the treatment group during clinical evaluation and scoring.
Immunohistological Staining: After 24-48 hours in fixative and 4-5 days in 5% formic acid for decalcification, tissues were trimmed, and processed for paraffin embedding. Paws were embedded in paraffin in the frontal plane and the knees were embedded with the patella facing down. Ankles, if left attached to the hind paw, were also embedded in the frontal plane but may be detached and sectioned in the sagittal plane for special purposes. Sections were cut and stained with toluidine blue.
0=Normal. 0.5=Very minimal, affects only 1 joint or minimal multifocal periarticular infiltration of inflammatory cells. 1=Minimal infiltration of inflammatory cells in synovium and periarticular tissue of affected joints. 2=Mild infiltration of inflammatory cells. When referring to paws, generally restricted to affected joints (1-3 affected). 3=Moderate infiltration with moderate edema. When referring to paws, restricted to affected joints, generally 3-4 joints and the wrist or ankle. 4=Marked infiltration affecting most areas with marked edema, 1 or 2 unaffected joints may be present. 5=Severe diffuse infiltration with severe edema affecting all joints (to some extent) and periarticular tissues.
0=Normal. 0.5=Very minimal, affects only one area of the synovium or minimal multifocal periarticular infiltration of inflammatory cells. 1=Minimal infiltration of inflammatory cells in synovium and periarticular tissue of affected synovial areas. 2=Mild diffuse infiltration of inflammatory cells. 3=Moderate diffuse infiltration of inflammatory cells. 4=Marked diffuse infiltration of inflammatory cells. 5=Severe diffuse infiltration of inflammatory cells.
0=Normal. 0.5=Very minimal=Affects marginal zones only of one to several areas (knees) or joints (paws). 1=Minimal=Generally minimal to mild loss of toluidine blue staining (proteoglycan) with no obvious chondrocyte loss or collagen disruption in affected joints/areas. 2=Mild=Generally mild loss of toluidine blue staining (proteoglycan) with focal areas of chondrocyte loss and/or collagen disruption in some affected joints/areas. […]

## Cc1nn(-c2ccc(C(N)=O)c(NCCCOCCOCCOCCOCCOCCCNCc3ccc(C(=C\C=C4\N(CCCCS(=O)(=O)[O-])c5ccccc5C4(C)C)/C=C/C4=[N+](CCCCS(=O)(=O)O)c5ccccc5C4(C)C)cc3)c2)c2c1C(=O)CC(C)(C)C2 [HS-131]
Human CD3+ T cells; p<0.001
  GM-CSF: significantly reduced
  IFNY: significantly reduced
  IL-17A: significantly reduced
Human CD3+ T cells; p=0.013
  MIP-1a/B: significantly reduced
Human CD3+ T cells; p=0.025
  TNF a: significantly reduced
[1]; day 21-36, N=12/group (FIG. 9A)
  pathogenesis of disease development (animals developing disease): comparable to the vehicle control
[1]; day 36, vs vehicle (FIG. 9E)
  reduction of bone resorption, histological scoring: 35%
  reduction of cartilage damage, histological scoring: 36%
  reduction of inflammation, histological scoring: 27%
  reduction of pannus, histological scoring: 35%
  reduction of periosteal bone, histological scoring: 29%
[1]; throughout study period, vs vehicle, p<.001 (FIG. 9B)
  mean clinical arthritic score: significantly reduced
[1]; vs vehicle (FIG. 9C)
  decrease in clinical score, area under the curve: ~23%
